# Laboratory results: article PMC7504466, “In-Vitro and In-Silico Evaluations of Heterocyclic-Containing Diarylpentanoids as Bcl-2 Inhibitors Against LoVo Colorectal Cancer Cells” (Molecules, 2020)
# How the values were obtained:
# Bad = assay: Western blot, Bad; format: cell-based, human; conditions: 5 µM, LoVo cells, detectable only after 48 h
# Experimental: (§1) Lovo cells (1.5 × 10^4 cells/cm^2) were seeded in a T75 flask and incubated at 37 °C and 5% CO2 atmosphere overnight. The seeded cells were then treated with selected compounds at 5 µM of 2e for 24 h, 48 h, and 72 h. After treatment, the cells were harvested and lysed with phenylmethanesulfonyl fluoride (PMSF)-containing cell lysis buffer. The lysates were then centrifuged at 13,300× g for 15 min and the supernatant was collected. Protein concentrations of all samples were determined using a BCA assay kit (Thermo Scientific Inc., Waltham, MA, USA). Equal amounts of protein were electrophoresed in 12% and 20% SDS-polyacrylamide gel (SDS-PAGE), and electro-transferred onto a 0.22-μm polyvinyldene difluoride membrane. Each membrane was blocked with 5% (w/v) skim milk at room temperature for 1 h followed by overnight incubation with specific primary antibodies (1:1000) at 4 °C. Subsequently, the respective membrane was washed thrice with TBST (0.05% (v/v) of tween-20) followed by 1 h incubation with secondary antibody (1:10,000). Upon completion, the membrane was washed thrice with 1X Tris-Buffered Saline, 0.1% Tween® 20 Detergent (TBST) and the immune reactive bands were developed using SuperSignal West Dura Extended Duration Substrate (Thermo Scientific Inc., Waltham, MA, USA). […]
# LS411N cells = assay: MTT cytotoxicity assay, LS411N cells; format: cell-based; conditions: Homo sapiens, LS-411N, 72 h post-treatment, read-out: IC50 (µM) BRAF LS411N
# Experimental: (§2) The in-vitro cytotoxic activity of the synthesized compounds on seven human CRC cell lines including KRAS (T84, SW620, LoVo) and BRAF (HT29, NCI-H508, RKO and LS411N) mutated cells were determined by MTT assay as previously described. The IC50 values obtained are summarized in Table 2 in which 5-FU and normal human dermal fibroblasts (NHDF) were used as controls. Meanwhile, a heatmap (Figure 3) was also generated using GraphPad Prism v7.0 (GraphPad Software, La Jolla, CA, USA) to visualize the cytotoxic trends of synthesized compounds graphically.
# (§3) A panel of KRAS (T84, SW620 and LoVo) and BRAF (HT29, NCI-H508, RKO and LS411N) mutated human CRC cell lines were grown in Dulbecco’s modified Eagle’s medium (DMEM) containing 10% fetal bovine serum (FBS) and 1% penicillin/streptomycin at 37 °C under 5% CO2 while NHDF cells were cultured in DMEM with 5% FBS under the same condition. The culture medium was replenished every two days until the cells reached 80–90% confluency for further usage. All cell lines (T84, ATCC®CCL-248™; SW620, ATCC®CCL-227™; LoVo, ATCC®CCL-229™; HT-29, ATCC®HTB-38; NCI-H508, ATCC®CCL-253™; RKO, ATCC®CRL-2577; LS411N, ATCC®CRL-2159; NHDF, ATCC® PCS-201-010™) were purchased from American Type culture Collections (ATCC, Manassas, VA, USA).
# (§4) LoVo cells (1.5–5 × 10^3 cells/well) were seeded into a 96 well plate and incubated at 37 °C and 5% CO2 atmosphere for 24 h. On the following day, the cell media were replaced with 100 µL of test compounds at various concentration. The final concentration of DMSO in the well is 0.1%. After 72 h of incubation, culture medium was removed and 100 µL of MTT (thiazoyl blue tertrazolium bromide) solution (0.5 mg/mL in culture media) was added. The resultant plates were then further incubated at 37 °C for 4 h. Upon completion, the MTT solution was removed and the formazan salts formed were dissolved in 100 µL of DMSO. The absorbance was recorded with a microplate reader at 570 nm. The IC50 values of tested compounds were calculated from three independent experiments.
# LoVo cells [1] = assay: Cell cycle analysis (flow cytometry, propidium iodide); format: cell-based, human; conditions: 2.5 and 5 µM, 24 h
# Experimental: LoVo cells (1 × 10^5 cells/well) were seeded into a 6-well plate and incubated at 37 °C and 5% CO2 atmosphere overnight. The seeded cells were then treated with different concentrations of tested compounds for 24 h. Upon completion, cells were trypsinized and washed with PBS followed by fixation with 70% ethanol overnight at 4 °C. Then, the fixed cells were centrifuged at 160× g for 5 min and the resultant cell pellet was washed twice with PBS. Subsequently, 20 μL of DNAse-free RNAse A solution (1 mg/mL) was added to the cell-containing PBS and further incubated for 15 min. Upon completion, 10 μL of propidium iodide staining buffer (10 mg/mL) was added and the resulting mixture was further incubated for 20 min at 4 °C in the dark. Lastly, samples were analyzed with a flow-cytometer (ACEA Biosciences, Inc., San Diego, CA, USA) at the PE channel. The values presented are the means ± SD of three independent experiments.
# Mcl-1 = assay: Western blot, Mcl-1; format: cell-based, human; conditions: 5 µM, LoVo cells, up to 72 h
# Experimental: as §1
# NCI-H508 cells = assay: MTT cytotoxicity assay, NCI-H508 cells; format: cell-based; conditions: Homo sapiens, 72 h post-treatment, read-out: IC50 (µM) BRAF NCI-H508
# Experimental: as §2, §3, §4
# T84 cells = assay: MTT cytotoxicity assay, T84 cells; format: cell-based; conditions: Homo sapiens, 72 h post-treatment, read-out: IC50 (µM) KRAS T84
# Experimental: as §2, §3, §4
# Bcl-2 = assay: Western blot, Bcl-2; format: cell-based, human; conditions: 5 µM, LoVo cells, as early as 24 h post-treatment
# Experimental: as §1
# LoVo cells [2] = assay: Colony formation assay; format: cell-based, human; conditions: 0.625-5 µM, 7 days post-treatment
# Experimental: LoVo cells (1 × 10^3 cells/well) were seeded into a 6-well plate and incubated at 37 °C and 5% CO2 atmosphere overnight. After incubation, the culture media were replaced with 3 mL of test compounds at various concentration and further incubated for seven days. Upon completion, cells were washed with PBS and fixed with 4% paraformaldehyde for 15 min followed by cell staining with 0.5% (w/v) crystal violet for 20 min. The resultant plates were then washed with tap water and dried at room temperature. Upon drying, the plate image was photographed.
# caspase-8 = assay: Western blot, caspase-8; format: cell-based, human; conditions: 5 µM, LoVo cells
# Experimental: as §1
smiles,measurement,setting,value
"O=C1C(=Cc2ccccc2Br)CSCC1=Cc1ccccc1Br [Compound 2e, 3,5-Bis(2-bromobenzylidene)tetrahydro-4H-thiopyran-4-one]",Bad expression,Bad,up-regulation
same,IC50,LS411N cells,1.3 µM
same,cell cycle effect,LoVo cells [1],induce G2/M-phase cell arrest
same,Mcl-1 expression,Mcl-1,remained unaffected
same,IC50,NCI-H508 cells,1.1 µM
same,IC50,T84 cells,1.6 µM
same,Bcl-2 expression,Bcl-2,significantly inhibited
same,colony formation of LoVo cells,LoVo cells [2],inhibit the colony formation of LoVo cells in a dose-dependent manner
same,caspase-8 cleavage,caspase-8,unaffected
